# Calls of active or inactive are those of the source. The rule behind the calls is not given here.
# Key:
# [1] = system: Mus musculus; experiment: Anorexigenic activity in Mus musculus albino (mouse) assessed as anorexia at 75 umol/kg, ip relative to fluoxetine; assay type: functional
# [2] = system: Mus musculus; experiment: Anorexigenic activity in Mus musculus albino (mouse) assessed as anorexia at 75 umol/kg, ip; assay type: functional
# [3] = system: Mus musculus; experiment: Antidepressant activity in Mus musculus albino (mouse) assessed as reversal of reserpine-induced ptosis, sedation and crouching at 75 umol/kg, ip; assay type: functional
# [4] = system: Mus musculus; experiment: Toxicity in Mus musculus albino (mouse) assessed as effect on gross behavior activity at 75 umol/kg, ip; assay type: organism-based; conditions: in vivo
Structure (SMILES),Activity [1],Activity [2],Activity [3],Activity [4]
FC(F)(F)c1ccc(OC2CCNCC2)cc1,81.86%,66.8%,75%,Non-toxic
OC(COc1ccccc1)CN1CCC(Oc2ccc(C(F)(F)F)cc2)CC1 (stereo unspecified),82.84%,67.6%,inactive,Non-toxic
OC(COc1ccc(C(F)(F)F)cc1)CN1CCC(Oc2ccc(C(F)(F)F)cc2)CC1 (stereo unspecified),77.94%,63.6%,inactive,Non-toxic
CNCCC(Oc1ccc(C(F)(F)F)cc1)c1ccccc1 (stereo unspecified) [FLUOXETINE],–,81.6%,100%,–
CN1CCC(O)(c2ccccc2)CC1,56.86%,46.4%,inactive,Non-toxic
OC(COc1cccc(C(F)(F)F)c1)CN1CCC(Oc2ccc(C(F)(F)F)cc2)CC1 (stereo unspecified),38.23%,31.2%,inactive,Non-toxic
CC(=O)Nc1ccc(OCC(O)CN2CCC(Oc3ccc(C(F)(F)F)cc3)CC2)cc1 (stereo unspecified),61.67%,50.4%,inactive,Non-toxic
CC(=O)c1ccc(OCC(O)CN2CCC(Oc3ccc(C(F)(F)F)cc3)CC2)cc1 (stereo unspecified),96.07%,78.4%,inactive,Non-toxic
COC(=O)c1ccccc1OCC(O)CN1CCC(Oc2ccc(C(F)(F)F)cc2)CC1 (stereo unspecified),43.13%,35.2%,inactive,Non-toxic
N#Cc1ccc(OCC(O)CN2CCC(Oc3ccc(C(F)(F)F)cc3)CC2)cc1 (stereo unspecified),70.58%,57.6%,inactive,Non-toxic
COc1cccc(OCC(O)CN2CCC(Oc3ccc(C(F)(F)F)cc3)CC2)c1 (stereo unspecified),63.23%,51.6%,50%,Non-toxic
CN1CCC(Oc2ccc(C(F)(F)F)cc2)CC1,28.92%,23.6%,inactive,Non-toxic
OC(COc1ccc(Cl)cc1)CN1CCC(Oc2ccc(C(F)(F)F)cc2)CC1 (stereo unspecified),75.49%,61.6%,75%,Non-toxic
OC(COc1ccc(Br)cc1)CN1CCC(Oc2ccc(C(F)(F)F)cc2)CC1 (stereo unspecified),95.09%,77.6%,inactive,Non-toxic
COc1ccc(OCC(O)CN2CCC(Oc3ccc(C(F)(F)F)cc3)CC2)cc1 (stereo unspecified),47.05%,38.4%,inactive,Non-toxic
CCC(=O)c1ccc(OCC(O)CN2CCC(Oc3ccc(C(F)(F)F)cc3)CC2)cc1 (stereo unspecified),67.64%,55.2%,inactive,Non-toxic
COC(=O)c1ccc(OCC(O)CN2CCC(Oc3ccc(C(F)(F)F)cc3)CC2)cc1 (stereo unspecified),32.84%,26.8%,inactive,Non-toxic
